Assay results taken from patent US10993957B2 (NuCana plc, priority 2011, dated 2021).
Where two headings read alike, the source gives them in different places.

System: Cem/TK^−
Assay: Cytostatic assay, thymidine kinase-deficient CEM/TK^− cells
Type: cell-based, human
Settings: Homo sapiens, CEM-TK(-)

C[C@H](NP(=O)(OC[C@H]1O[C@@H](n2cc(F)c(=O)[nH]c2=O)CC1O)Oc1cccc2ccccc12)C(=O)OCc1ccccc1 (stereo partly drawn) [CPF 373, 5-Fluoro-2′deoxyuridine-5′-O-[1-naphthyl (benzoxy-L-alaninyl)] phosphate]
IC50 (Table 3, read-out: IC50 CEM/TK−): 320 nM
IC50 (Table 6, read-out: IC50 Cem/TK^−): 310 ± 60 nM
